Measurements reported in ChEMBL document CHEMBL1201862, “PubChem BioAssay data set” (2004).
Active and inactive are the calls of the source.

Columns and labels:
[1] = A cytotoxicity screen of small molecule inhibitors of the PhoP region in Salmonella typhi identified in the primary screen. [Related pubchem assays: 1850, 1864, 1985 ]; format: functional
[2] = molecular target: Luciferin 4-monooxygenase (Photinus pyralis, UniProt P08659); experiment: inhibition of purified Photinus pyralis luciferase – biochemical, luminescence, dose response (AID 1891)
Sequence of Luciferin 4-monooxygenase (P08659 whole entry): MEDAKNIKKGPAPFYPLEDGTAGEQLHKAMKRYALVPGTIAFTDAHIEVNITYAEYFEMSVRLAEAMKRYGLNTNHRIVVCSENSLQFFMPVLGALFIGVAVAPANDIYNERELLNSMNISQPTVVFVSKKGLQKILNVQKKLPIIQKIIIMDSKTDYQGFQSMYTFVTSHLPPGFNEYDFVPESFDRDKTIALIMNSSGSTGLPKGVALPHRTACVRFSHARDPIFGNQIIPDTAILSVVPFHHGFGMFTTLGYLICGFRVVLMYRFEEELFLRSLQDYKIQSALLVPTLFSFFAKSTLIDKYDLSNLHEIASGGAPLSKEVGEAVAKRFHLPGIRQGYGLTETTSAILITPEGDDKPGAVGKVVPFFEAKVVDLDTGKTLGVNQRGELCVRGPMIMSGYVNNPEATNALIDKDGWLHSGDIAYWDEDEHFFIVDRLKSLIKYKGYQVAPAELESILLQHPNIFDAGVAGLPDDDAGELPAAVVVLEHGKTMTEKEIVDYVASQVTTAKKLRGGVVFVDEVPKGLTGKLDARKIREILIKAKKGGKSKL

[3] = Luminescence Cell-Based Dose Confirmation HTS to Identify Inhibitors of Platelet Dense Granule Release. [Related pubchem assays: 1663 (Primary HTS), 1678 (Summary of Project)]; format: functional
[4] = molecular target: Cytochrome P450 3A4 (Homo sapiens, UniProt P08684); settings: Potency;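 note: confirmatory qHTS run detecting inhibitors and substrates of CYP3A4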
Sequence of Cytochrome P450 3A4 (P08684 whole entry, the tested form may be a part): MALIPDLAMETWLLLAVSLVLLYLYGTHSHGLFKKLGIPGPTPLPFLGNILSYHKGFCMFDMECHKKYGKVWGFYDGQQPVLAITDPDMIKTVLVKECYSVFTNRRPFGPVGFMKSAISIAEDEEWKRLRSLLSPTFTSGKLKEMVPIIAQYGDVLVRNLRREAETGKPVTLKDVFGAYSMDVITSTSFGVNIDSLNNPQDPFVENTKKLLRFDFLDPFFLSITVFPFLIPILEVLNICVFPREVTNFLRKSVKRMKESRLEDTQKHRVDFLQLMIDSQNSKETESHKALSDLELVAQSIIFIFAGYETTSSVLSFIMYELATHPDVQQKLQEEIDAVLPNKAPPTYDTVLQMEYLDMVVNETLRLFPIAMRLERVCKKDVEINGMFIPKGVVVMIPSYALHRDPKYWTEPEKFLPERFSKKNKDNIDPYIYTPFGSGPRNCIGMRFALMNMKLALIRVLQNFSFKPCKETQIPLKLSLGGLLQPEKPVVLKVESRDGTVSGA

[5] = HIV-1 AD8 envelope cell-cell fusion blockers – cherry-pick, dose response (AID 652062); format: functional, cell-based;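 note: luciferase signal from cell-cell fusion driven by HIV-1 clade B AD8 Env; potency is for inhibitors of fusion seen as a drop in luminescence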
[6] = blockers of HIV-1 envelope-mediated cell-cell fusion – cherry-pick, dose response (AID 652057); format: functional, cell-based
[7] = blockers of HIV-1 ZM109 envelope-driven cell-cell fusion – HeLa effector, CEM target cells, luciferase, cherry-pick, dose response (AID 652058); format: functional, cell-based;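 note: luciferase signal from HIV-1 Env mediated cell-cell fusion of effector and target cells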
[8] = molecular target: T1, Sentrin-specific protease 7 (Homo sapiens, UniProt Q9BQF6); format: functional;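 note: Luminescence-based dose-response confirmation of ultra-high-throughput screening hits, measuring inhibition of SENP7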
T1 sequence (Q9BQF6 whole entry): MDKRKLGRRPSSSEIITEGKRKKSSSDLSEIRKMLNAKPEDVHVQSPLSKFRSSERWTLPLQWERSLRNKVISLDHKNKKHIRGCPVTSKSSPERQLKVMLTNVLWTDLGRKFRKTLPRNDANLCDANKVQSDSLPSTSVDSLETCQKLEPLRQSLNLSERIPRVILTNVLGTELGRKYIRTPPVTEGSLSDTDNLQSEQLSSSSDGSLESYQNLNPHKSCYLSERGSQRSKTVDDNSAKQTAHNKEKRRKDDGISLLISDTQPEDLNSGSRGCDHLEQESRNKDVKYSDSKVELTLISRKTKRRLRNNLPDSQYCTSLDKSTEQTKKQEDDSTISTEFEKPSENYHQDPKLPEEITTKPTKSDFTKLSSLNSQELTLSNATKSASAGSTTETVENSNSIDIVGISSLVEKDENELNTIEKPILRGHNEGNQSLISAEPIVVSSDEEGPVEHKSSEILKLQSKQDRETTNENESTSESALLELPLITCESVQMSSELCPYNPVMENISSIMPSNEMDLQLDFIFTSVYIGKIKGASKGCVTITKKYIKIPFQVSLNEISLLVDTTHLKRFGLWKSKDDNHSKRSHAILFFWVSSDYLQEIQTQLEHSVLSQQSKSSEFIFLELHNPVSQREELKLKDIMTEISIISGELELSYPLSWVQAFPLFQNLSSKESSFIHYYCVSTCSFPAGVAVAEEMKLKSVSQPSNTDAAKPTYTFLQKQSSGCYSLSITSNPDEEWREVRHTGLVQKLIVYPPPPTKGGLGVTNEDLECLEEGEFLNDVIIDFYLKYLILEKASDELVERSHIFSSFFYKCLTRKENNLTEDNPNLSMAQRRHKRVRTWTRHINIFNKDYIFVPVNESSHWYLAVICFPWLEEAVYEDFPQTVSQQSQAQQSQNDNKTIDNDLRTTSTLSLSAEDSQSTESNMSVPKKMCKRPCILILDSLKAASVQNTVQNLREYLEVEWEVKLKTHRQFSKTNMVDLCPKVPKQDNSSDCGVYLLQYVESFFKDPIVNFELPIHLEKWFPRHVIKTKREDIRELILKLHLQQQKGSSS

[9] = molecular target: T2, Sentrin-specific protease 8 (Homo sapiens, UniProt Q96LD8); format: functional;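 note: luminescence read-out of SENP8 inhibition, dose-response confirmation following an ultra-high-throughput screen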
T2 sequence (Q96LD8 whole entry): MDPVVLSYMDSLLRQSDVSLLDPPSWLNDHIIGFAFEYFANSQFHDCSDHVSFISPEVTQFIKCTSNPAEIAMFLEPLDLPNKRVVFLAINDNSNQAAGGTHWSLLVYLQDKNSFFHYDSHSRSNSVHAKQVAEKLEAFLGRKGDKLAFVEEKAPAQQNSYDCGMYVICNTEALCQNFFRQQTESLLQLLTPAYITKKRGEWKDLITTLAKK

[10] = molecular target: T3, Sentrin-specific protease 6 (Homo sapiens, UniProt Q9GZR1); format: functional;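 note: Luminescence-based dose-response confirmatory assay of SENP6 inhibition, following up an ultra-high-throughput screen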
T3 sequence (Q9GZR1 whole entry): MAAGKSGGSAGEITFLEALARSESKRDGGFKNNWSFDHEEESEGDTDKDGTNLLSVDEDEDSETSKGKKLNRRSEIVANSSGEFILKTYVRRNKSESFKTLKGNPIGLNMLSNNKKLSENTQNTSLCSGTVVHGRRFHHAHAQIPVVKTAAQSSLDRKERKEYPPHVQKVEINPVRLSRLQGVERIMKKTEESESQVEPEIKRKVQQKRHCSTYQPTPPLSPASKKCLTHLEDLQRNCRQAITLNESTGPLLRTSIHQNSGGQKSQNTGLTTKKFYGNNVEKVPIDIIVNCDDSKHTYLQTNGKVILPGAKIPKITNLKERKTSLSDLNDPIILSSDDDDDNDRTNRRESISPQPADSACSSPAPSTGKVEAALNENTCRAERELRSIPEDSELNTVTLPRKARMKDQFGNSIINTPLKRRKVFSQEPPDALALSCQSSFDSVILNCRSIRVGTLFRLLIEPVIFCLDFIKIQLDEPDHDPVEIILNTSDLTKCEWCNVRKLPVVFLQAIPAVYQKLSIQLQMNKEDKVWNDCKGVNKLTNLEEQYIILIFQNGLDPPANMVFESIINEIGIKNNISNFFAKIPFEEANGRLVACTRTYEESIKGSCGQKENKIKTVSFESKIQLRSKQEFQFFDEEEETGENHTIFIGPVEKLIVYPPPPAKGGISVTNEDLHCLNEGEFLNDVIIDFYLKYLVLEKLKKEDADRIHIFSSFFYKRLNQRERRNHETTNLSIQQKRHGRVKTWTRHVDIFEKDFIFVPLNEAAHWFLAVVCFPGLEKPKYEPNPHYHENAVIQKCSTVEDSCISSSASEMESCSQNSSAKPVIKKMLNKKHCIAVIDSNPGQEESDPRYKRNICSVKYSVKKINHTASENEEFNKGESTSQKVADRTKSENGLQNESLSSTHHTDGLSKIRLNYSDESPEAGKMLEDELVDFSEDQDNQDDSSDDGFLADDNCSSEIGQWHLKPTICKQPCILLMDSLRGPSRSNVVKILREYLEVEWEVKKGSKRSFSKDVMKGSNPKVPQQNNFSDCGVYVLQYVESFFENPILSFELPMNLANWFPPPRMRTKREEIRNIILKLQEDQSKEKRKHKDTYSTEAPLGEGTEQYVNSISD

[11] = toxicity to human hepatoma HepG2 cells – cell-based, cherry-picked samples, cytotoxicity control, dose response (AID 1159577); format: functional
[12] = P. falciparum Dd2 growth inhibitors, dose response, SYBR Green, cherry-picked samples (AID 1159567); format: functional, cell-based

O=C(Nc1cccnc1)c1cc(Br)c(Br)s1
EC50 [1]: > 50 µM (active)

CCOC(=O)c1cc2cc([N+](=O)[O-])ccc2oc1=O
EC50 [2]: > 112 µM (not active) | EC50 [3]: > 112 µM (not active)

COc1cccc2oc(-c3ccccc3)cc(=O)c12
AC50 [4]: 31.6 µM (inconclusive)

O=C(NCN1CCN(c2ccccn2)CC1)c1cnccn1
EC50 [2]: > 112 µM (not active) | EC50 [3]: > 112 µM (not active)

C[C@H](CO)N1C[C@H](C)[C@H](CN(C)S(=O)(=O)c2ccc(Cl)cc2)Oc2ccc(NC(=O)C3CCCCC3)cc2CC1=O
AC50 [5]: 20.1 µM (active) | AC50 [6]: 1.36 µM (active) | AC50 [7]: 2.13 µM (active)

C[C@H](CO)N1C[C@H](C)[C@@H](CN(C)C(=O)Nc2cccc3ccccc23)OCCCC[C@H](C)Oc2ccc(N(C)C)cc2C1=O
AC50 [7]: 24.8 µM (active)

COc1ccccc1NC(=O)N[C@@H]1CC[C@H](CC(=O)N[C@H](C)c2ccccc2)O[C@@H]1CO
AC50 [5]: 2.61 µM (active) | AC50 [6]: 0.97 µM (active) | AC50 [7]: < 0.26 µM (active)

Cc1[nH]n(C(N)=S)c(=O)c1/N=N/c1ccccc1C(F)(F)F
IC50 [8]: 12.7 µM (active) | IC50 [9]: 15.5 µM (active) | IC50 [10]: 18.9 µM (active)

C/C(=N\NC(=O)COc1ccccc1[N+](=O)[O-])c1cccs1
EC50 [1]: > 50 µM (active)

COc1cccc(CN2CC3(CCN(CC4CC4)CC3)c3c([nH]c4cc(OC)ccc34)[C@H]2CO)c1
AC50 [11]: 19.7 µM (active) | AC50 [12]: 5 µM (active)

COc1ccc(C#Cc2ccc([C@@H]3[C@H](CO)N4CCCCN(Cc5ccncc5)C[C@@H]34)cc2)cc1
AC50 [11]: 13.6 µM (active) | AC50 [12]: 0.949 µM (active)

CC(C)N(C[C@H]1N[C@H](CO)[C@@H]1c1ccc(C2=CCCC2)cc1)C(=O)CN(C)C
AC50 [11]: > 39 µM (inactive) | AC50 [12]: 5.21 µM (active)

C[C@@H]1CN([C@H](C)CO)S(=O)(=O)c2ccc(/C=C/c3ccccc3)cc2O[C@H]1CN(C)Cc1cccnc1
AC50 [11]: 19.7 µM (active) | AC50 [12]: 3.7 µM (active)
